Reference: patent publication US20260184669A1, “LIPID COMPOUND AND COMPOSITION FOR DELIVERY OF ACTIVE SUBSTANCE” (KOREA RESEARCH INSTIUTE OF BIOSCIENCE AND BIOTECHNOLOGY, priority 2022, published 2026)
Like-named read-outs stand apart in the source and are kept apart here.

Key:
[1] = Stability of mRNA-LNPs according to storage temperature and duration; assay type: physicochemical; details: for Normalized EE % D-7 / PDI D-7 / Size (nm) D-7: day 7; for Normalized EE % D-30 / PDI D-30 / Size (nm) D-30: day 30
Method: Stability of fLuc mRNA-LNPs produced using various ionizable lipids according to the method of Example 27, was assessed by storing the LNPs at 4° C. and 25° C. At 1, 7, and 30 days post-manufacture, the size, PDI, and encapsulation efficiency (EE) of each mRNA-LNPs samples were measured using the methods described in Experimental Examples 2 and 3.

[2] = mRNA encapsulation efficiency (Quant-IT RiboGreen RNA assay); assay type: physicochemical; details: mRNA encapsulation efficiency of mRNA-LNP made with the ionizable lipid; average of two measurements
How it was run: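 LNP samples read with RiboGreen reagent in TE buffer with or without 2% Triton X-100 (37 °C, 10 min) to release encapsulated mRNA. Fluorescence at λex 480/λem 520 nm; EE % calculated from the two readings, averaged over two independent measurements.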

female C57BL/6 mice = test: Protein expression efficiency of fLuc mRNA-LNPs after intramuscular injection (IVIS whole-body luminescence); assay type: in vivo; details: for Total flux 1 hour / Total flux 3 hours / Total flux 6 hours / Total flux 48 hours / Total flux 72 hours / Total flux: fLuc mRNA-LNP, intramuscular injection, luminescence at injection site, mice; for Total flux 1 hour: 1 hour after administration; for Total flux 3 hours: 3 hours after administration; for Total flux 6 hours: 6 hours after administration; for Total flux 48 hours: 48 hours after administration; for Total flux 72 hours: 72 hours after administration; for Total flux: after administration
How it was run: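 Female C57BL/6 mice (6-10 weeks, n≥4) got intramuscular fLuc mRNA-LNPs at 0.1-0.5 mg/kg mRNA. Injection-site luminescence was imaged under isoflurane at 1-72 h, 10 min after i.p. D-luciferin (200 μL, 15 mg/mL). Expression at 3 h was taken relative to MC3 or SM-102 LNPs.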

[3] = test system: CCL2 mRNA level in HEK-293T cells
[4] = In vivo toxicity evaluation, serum biochemical analysis (AST, ALT, ALP, BUN, creatinine); details: serum of mice after injection of fLuc mRNA-LNP, FIG. 9
Method: Toxicity induced by fLuc mRNA-LNPs prepared using various ionizable lipids according to the method of Example 27 was evaluated through serum biochemical analysis following […]. injection into mice.
Specifically, 50-100 μL of serum was collected each mouse at 24 and 48 hours after intravenous injection using the retro-orbital bleeding method. The serum biochemical analysis was performed using Hitachi 7150 Chemistry Analyzer, measuring indicators of liver function—aspartate aminotransferase (AST), alanine aminotransferase (ALT), alkaline phosphatase (ALP)- and indicators of kidney function—blood urea nitrogen (BUN) and creatinine.

[5] = test system: IL-1β mRNA level in HEK-293T cells
[6] = test system: IL-6 mRNA level in HEK-293T cells
[7] = Size, polydispersity index and surface charge of mRNA-LNP (Malvern Zetasizer Nano ZS90); assay type: physicochemical; details: for PDI / size (nm) Number: mRNA-LNP made with the ionizable lipid at its optimal formulation (Table 2); for size (nm) Number: diluted with PBS to 1 μg/mL mRNA; for Zeta (mV): surface charge of mRNA-LNP made with the ionizable lipid at its optimal formulation (Table 2)
How it was run: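 Dynamic/electrophoretic light scattering of LNPs diluted in PBS to a final mRNA concentration of 1 μg/mL. Readouts were particle size, PDI and surface charge.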

[8] = test system: CCL3 mRNA level in HEK-293T cells
[9] = Apparent pKa of mRNA-LNP by TNS binding assay; assay type: physicochemical; details: apparent pKa of mRNA-LNP made with the ionizable lipid
Method: The apparent pKa of the mRNA-LNPs prepared according to Example 27 was determined by analysis using 6-(p-toluidino)-2-naphthalenesulfonic acid sodium salt (TNS; Sigma-Aldrich, USA).
However, as the pH decreases, the proportion of positively charged ionizable lipids increases, allowing electrostatic interactions with TNS. […] When the pH of the solution increases and the ionizable lipids become neutralized, TNS can no longer engage in electrostatic interactions. Consequently, TNS loses its lipophilic character, exits the hydrophobic domain, and its fluorescence is quenched. Based on this principle, the pKa of LNPs can be measured by plotting the change in TNS fluorescence intensity in response to variations in the surrounding pH as an S-shaped curve, and calculating the […] of the inflection point. […]
Specifically, a master buffer was prepared containing 10 mM sodium phosphate, 10 mM sodium borate, 10 mM sodium citrate, and 150 mM sodium chloride (NaCl). […] After gently mixing the contents of each well, the fluorescence intensity was measured using a multiplate reader (Cary Eclipse, Agilent Technologies, USA) at an excitation wavelength of λex 330 nm and an emission wavelength of λem 435 nm.

[10] = fLuc mRNA-LNP stored at 4° C., day 1
[11] = fLuc mRNA-LNP stored at 25° C., day 1

## CCCCCCCCCCCOC(=O)CCCCCN(CCCCCCCC(=O)OC(CCCCCCCC)CCCCCCCC)CC(O)CCCCNC(=O)c1cc[nH]c1 (stereo not shown) [Compound 17, Heptadecan-9-yl 8-((2-hydroxy-6-(1H-pyrrole-3-carboxamido)hexyl)(6-oxo-6-(undecyloxy)hexyl)amino)octanoate]
[1]; [10]
  Normalized EE % D-1: 94.0%
  PDI D-1: 0.100
  Size (nm) D-1: 151.2 nm
[1]; fLuc mRNA-LNP stored at 4° C.
  Normalized EE % D-7: 91.3%
  PDI D-7: 0.098
  Size (nm) D-7: 133.8 nm
  Normalized EE % D-30: 89.8%
  PDI D-30: 0.081
  Size (nm) D-30: 130.7 nm
[1]; [11]
  Normalized EE % D-1: 94.0%
  Size (nm) D-1: 151.2 nm
[1]; fLuc mRNA-LNP stored at 25° C.
  Normalized EE % D-7: 90.2%
  PDI D-7: 0.114
  Size (nm) D-7: 134.2 nm
  Normalized EE % D-30: 88.6%
  PDI D-30: 0.128
  Size (nm) D-30: 128.1 nm
[2]
  EE (%): 94%
Female C57BL/6 mice; 3 hours post intramuscular injection, in words
  protein expression compared to the control group (SM-102): significantly higher protein expression
Female C57BL/6 mice
  Total flux 1 hour: 6.53E+07
  Total flux 3 hours: 2.23E+08
  Total flux 6 hours: 1.02E+08
  Total flux 48 hours: 4.80E+06
  Total flux 72 hours: 4.21E+06
  Total flux: 1.00E+07
Female C57BL/6 mice; relative to control LNP formulated with MC3, 3 hours after intramuscular injection
  Fold increase in total flux at 3 h, MC3: 18.09
Female C57BL/6 mice; relative to control LNP formulated with SM-102, 3 hours after intramuscular injection
  Fold increase in total flux at 3 h, SM-102: 1.99
[3]; human
  CCL2 Average: 0.65
[4]
  ALP level compared to control groups (PBS and SM-102): similar
  AST level compared to control groups (PBS and SM-102): lower
  BUN level compared to control groups (PBS and SM-102): similar
[5]; human
  IL-1β Average: 0.70
[6]; human
  IL-6 Average: 0.94
[7]
  PDI: 0.100
  size (nm) Number: 151 nm
  Zeta (mV): −6.80 mV
[8]; human
  CCL3 Average: 1.10

## CCCCCCCCCCCOC(=O)CCCCCN(CCO)CCCCCCCC(=O)OC(CCCCCCCC)CCCCCCCC [SM-102, reference compound]
[2]
  EE (%): 94%
Female C57BL/6 mice
  Total flux 1 hour: 1.48E+07
  Total flux 3 hours: 1.12E+08
  Total flux 6 hours: 1.82E+08
  Total flux 48 hours: 7.43E+06
  Total flux 72 hours: 2.86E+06
  Total flux: 2.27E+07
[3]
  CCL2 Average: 0.83
[5]
  IL-1β Average: 1.14
[9]
  PKa: 6.48
[6]
  IL-6 Average: 1.82
[7]
  PDI: 0.140
  size (nm) Number: 101 nm
  Zeta (mV): −2.99 mV
[8]
  CCL3 Average: 2.41
